ChEMBL document CHEMBL1137069, “Design, synthesis and anti-microbial activity of 1H-pyrazole carboxylates” (2004)
Where “and” joins values, the source holds several entries; their conditions need not be identical. Equal values may be shown once.

Columns and labels:
Assay type in all cases: functional
Fusarium oxysporum [1] = assay: Antifungal activity against Fusarium oxysporum was measured as mycelial growth at 0.1 mg/mL concentration
Curvularia lunata [2] = assay: Antifungal activity against Curvularia lunata was measured as mycelial growth at 0.5 mg/mL concentration
Alternaria alternata [3] = assay: Antifungal activity against Alternaria alternata was determined at 0.1 mg/mL concentration
Escherichia coli [4] = assay: Antibacterial activity against Escherichia coli was determined at 0.1 mg/mL concentration
Fusarium oxysporum [5] = assay: Antifungal activity against Fusarium oxysporum was determined at 0.5 mg/mL concentration
Alternaria alternata [6] = assay: Antifungal activity against Alternaria alternata was determined at 0.5 mg/mL concentration
Staphylococcus aureus [7] = assay: Antibacterial activity against Staphylococcus aureus was measured as area of inhibition zone at 0.1 mg/mL concentration; details: for zone of inhibition at 100 µg/mL: Staphylococcus aureus
Pseudomonas aeruginosa [8] = assay: Antibacterial activity against Pseudomonas aeruginosa was determined at 0.1 mg/mL concentration
Alternaria alternata [9] = assay: Antifungal activity against Alternaria alternata was measured as mycelial growth at 0.1 mg/mL concentration
Alternaria alternata [10] = assay: Antifungal activity against Alternaria alternata was measured as mycelial growth at 0.5 mg/mL concentration
Enterococcus faecalis [11] = assay: Antibacterial activity against […] was determined at 0.5 mg/mL concentration
Enterococcus faecalis [12] = assay: Antibacterial activity against […] was measured as area of inhibition zone at 0.1 mg/mL concentration
Thanatephorus cucumeris [13] = assay: Antifungal activity against Rhizoctonia solani was measured as mycelial growth at 0.1 mg/mL concentration
Curvularia lunata [14] = assay: Antifungal activity against Curvularia lunata was determined at 0.1 mg/mL concentration
[15] = Antifungal activity against Bipolaris oryzae was determined at 0.1 mg/mL concentration
Thanatephorus cucumeris [16] = assay: Antifungal activity against Rhizoctonia solani was determined at 0.5 mg/mL concentration
Fusarium oxysporum [17] = assay: Antifungal activity against Fusarium oxysporum was determined at 0.1 mg/mL concentration
[18] = Antifungal activity against Bipolaris oryzae was determined at 0.5 mg/mL concentration
Thanatephorus cucumeris [19] = assay: Antifungal activity against Rhizoctonia solani was measured as mycelial growth at 0.5 mg/mL concentration
Pseudomonas aeruginosa [20] = assay: Antibacterial activity against Pseudomonas aeruginosa was determined at 0.5 mg/mL concentration
Thanatephorus cucumeris [21] = assay: Antifungal activity against Rhizoctonia solani was determined at 0.1 mg/mL concentration
[22] = Antifungal activity against Bipolaris oryzae was measured as mycelial growth at 0.1 mg/mL concentration
Pseudomonas aeruginosa [23] = assay: Antibacterial activity against Pseudomonas aeruginosa was measured as area of inhibition zone at 0.1 mg/mL concentration; details: for zone of inhibition at 100 µg/mL: Pseudomonas aeruginosa
Fusarium oxysporum [24] = assay: Antifungal activity against Fusarium oxysporum was measured as mycelial growth at 0.5 mg/mL concentration
Curvularia lunata [25] = assay: Antifungal activity against Curvularia lunata was measured as mycelial growth at 0.1 mg/mL concentration
Enterococcus faecalis [26] = assay: Antibacterial activity against […] was determined at 0.1 mg/mL concentration
Curvularia lunata [27] = assay: Antifungal activity against Curvularia lunata was determined at 0.5 mg/mL concentration
Staphylococcus aureus [28] = assay: Antibacterial activity against Staphylococcus aureus was determined at 0.5 mg/mL concentration
[29] = Antifungal activity against Bipolaris oryzae was measured as mycelial growth at 0.5 mg/mL concentration
Escherichia coli [30] = assay: Antibacterial activity against Escherichia coli was determined at 0.5 mg/mL concentration
Staphylococcus aureus [31] = assay: Antibacterial activity against Staphylococcus aureus was determined at 0.1 mg/mL concentration
[32] = Antibacterial activity against Escherichia coli was measured as area of inhibition zone at 0.1 mg/mL concentration; details: for zone of inhibition at 100 µg/mL: Escherichia coli

SMILES | Mycelial growth (Fusarium oxysporum [1]) | Mycelial growth (Curvularia lunata [2]) | inhibition at 100 µg/mL (Alternaria alternata [3]) | inhibition at 100 µg/mL (Escherichia coli [4]) | inhibition at 500 µg/mL (Fusarium oxysporum [5]) | inhibition at 500 µg/mL (Alternaria alternata [6]) | Inhibition Zone (Staphylococcus aureus [7]) | inhibition at 100 µg/mL (Pseudomonas aeruginosa [8]) | Mycelial growth (Alternaria alternata [9]) | Mycelial growth (Alternaria alternata [10]) | inhibition at 500 µg/mL (Enterococcus faecalis [11]) | zone of inhibition at 100 µg/mL (Enterococcus faecalis [12]) | Mycelial growth (Thanatephorus cucumeris [13]) | inhibition at 100 µg/mL (Curvularia lunata [14]) | inhibition at 100 µg/mL [15] | inhibition at 500 µg/mL (Thanatephorus cucumeris [16]) | inhibition at 100 µg/mL (Fusarium oxysporum [17]) | inhibition at 500 µg/mL [18] | Mycelial growth (Thanatephorus cucumeris [19]) | inhibition at 500 µg/mL (Pseudomonas aeruginosa [20]) | further results
CCOC(=O)c1cn(-c2ccc([N+](=O)[O-])cc2[N+](=O)[O-])nc1-c1ccccc1F | 6 cm | 4 cm | 53.3% | 20% | 41.1% | 62.2% | 7.3 cm | 0% | 4.2 cm | 3.4 cm | 25.6% | 23 mm | 9 cm | 44.4% | 36.7% | 8.9% | 33.3% | 52.2% | 8.2 cm | 0% | zone of inhibition at 100 µg/mL (Staphylococcus aureus [7]): 42 mm; inhibition at 100 µg/mL (Thanatephorus cucumeris [21]): 0%; Mycelial growth [22]: 5.7 cm; zone of inhibition at 100 µg/mL (Pseudomonas aeruginosa [23]): 0 mm; Mycelial growth (Fusarium oxysporum [24]): 5.3 cm; Mycelial growth (Curvularia lunata [25]): 5 cm; inhibition at 100 µg/mL (Enterococcus faecalis [26]): 0%; inhibition at 500 µg/mL (Curvularia lunata [27]): 55.6%; inhibition at 500 µg/mL (Staphylococcus aureus [28]): 81.1%; Mycelial growth [29]: 4.3 cm; inhibition at 500 µg/mL (Escherichia coli [30]): 56.7%; inhibition at 100 µg/mL (Staphylococcus aureus [31]): 46.7%
CCOC(=O)c1cn(-c2ccc([N+](=O)[O-])cc2[N+](=O)[O-])nc1C | 6.3 cm | 5.3 cm | 38.9% | 51.1% | 40% | 46.7% | 5.3 cm | 0% | 5.5 cm | 4.8 cm | 84.4% | 76 mm | 9 cm | 27.8% | 33.3% | 11.1% | 30% | 5% | 8 cm | 0% | zone of inhibition at 100 µg/mL (Staphylococcus aureus [7]): 82 mm; Inhibition Zone [32]: 7.8 cm and 4.6 cm; zone of inhibition at 100 µg/mL [32]: 50 mm; inhibition at 100 µg/mL (Thanatephorus cucumeris [21]): 0%; Mycelial growth [22]: 6 cm; zone of inhibition at 100 µg/mL (Pseudomonas aeruginosa [23]): 0 mm; Mycelial growth (Fusarium oxysporum [24]): 5.4 cm; Mycelial growth (Curvularia lunata [25]): 6.5 cm; inhibition at 100 µg/mL (Enterococcus faecalis [26]): 55.6%; inhibition at 500 µg/mL (Curvularia lunata [27]): 41.1%; inhibition at 500 µg/mL (Staphylococcus aureus [28]): 91.1%; Mycelial growth [29]: 4.5 cm; inhibition at 500 µg/mL (Escherichia coli [30]): 86.7%; inhibition at 100 µg/mL (Staphylococcus aureus [31]): 58.9%
Cc1nn(-c2ccc([N+](=O)[O-])cc2[N+](=O)[O-])cc1C(=O)OCc1ccccc1 | 6.3 cm | 5.3 cm | 42.2% | 17.8% | 52.2% | 53.3% | 4.1 cm | 18.9% | 5.2 cm | 4.2 cm | 81.1% | 73 mm | 7.9 cm | 28.9% | 33.3% | 27.8% | 30% | 46.7% | 6.5 cm | 22.2% | zone of inhibition at 100 µg/mL (Staphylococcus aureus [7]): 71 mm; inhibition at 100 µg/mL (Thanatephorus cucumeris [21]): 12.2%; Mycelial growth [22]: 6 cm; Inhibition Zone (Pseudomonas aeruginosa [23]): 2 cm; zone of inhibition at 100 µg/mL (Pseudomonas aeruginosa [23]): 17 mm; Mycelial growth (Fusarium oxysporum [24]): 4.3 cm; Mycelial growth (Curvularia lunata [25]): 6.4 cm; inhibition at 100 µg/mL (Enterococcus faecalis [26]): 56.7%; inhibition at 500 µg/mL (Curvularia lunata [27]): 41.1%; inhibition at 500 µg/mL (Staphylococcus aureus [28]): 78.9%; Mycelial growth [29]: 4.8 cm; inhibition at 500 µg/mL (Escherichia coli [30]): 54.4%; inhibition at 100 µg/mL (Staphylococcus aureus [31]): 45.6%
Cc1nn(-c2ccc([N+](=O)[O-])cc2[N+](=O)[O-])cc1C(=O)OC(C)(C)C | 7.8 cm | 5.4 cm | 31.1% | 16.7% | 36.7% | 43.3% | 7.3 cm | 0% | 6.2 cm | 5.1 cm | 53.3% | 48 mm | 9 cm | 25.6% | 38.9% | 5.6% | 13.3% | 52.2% | 8.5 cm | 0% | zone of inhibition at 100 µg/mL (Staphylococcus aureus [7]): 84 mm; inhibition at 100 µg/mL (Thanatephorus cucumeris [21]): 0%; Mycelial growth [22]: 5.5 cm; zone of inhibition at 100 µg/mL (Pseudomonas aeruginosa [23]): 0 mm; Mycelial growth (Fusarium oxysporum [24]): 5.7 cm; Mycelial growth (Curvularia lunata [25]): 6.7 cm; inhibition at 100 µg/mL (Enterococcus faecalis [26]): 21.1%; inhibition at 500 µg/mL (Curvularia lunata [27]): 40%; inhibition at 500 µg/mL (Staphylococcus aureus [28]): 93.3%; Mycelial growth [29]: 4.3 cm; inhibition at 500 µg/mL (Escherichia coli [30]): 52.2%; inhibition at 100 µg/mL (Staphylococcus aureus [31]): 81.1%
CCOC(=O)c1cn(-c2ccc([N+](=O)[O-])cc2[N+](=O)[O-])nc1CCl | 6.8 cm | 5.1 cm | 33.3% | 17.8% | 48.9% | 46.7% | 8.3 cm | 0% | 6 cm | 4.8 cm | 0% | 0 mm | 9 cm | 33.3% | 34.4% | 5.6% | 24.4% | 48.9% | 8.5 cm | 0% | zone of inhibition at 100 µg/mL (Staphylococcus aureus [7]): 69 mm; inhibition at 100 µg/mL (Thanatephorus cucumeris [21]): 0%; Mycelial growth [22]: 5.9 cm; zone of inhibition at 100 µg/mL (Pseudomonas aeruginosa [23]): 0 mm; Mycelial growth (Fusarium oxysporum [24]): 4.6 cm; Mycelial growth (Curvularia lunata [25]): 6 cm; inhibition at 100 µg/mL (Enterococcus faecalis [26]): 0%; inhibition at 500 µg/mL (Curvularia lunata [27]): 43.3%; inhibition at 500 µg/mL (Staphylococcus aureus [28]): 92.2%; Mycelial growth [29]: 4.6 cm; inhibition at 500 µg/mL (Escherichia coli [30]): 51.1%; inhibition at 100 µg/mL (Staphylococcus aureus [31]): 76.6%
CCOC(=O)c1cn(-c2ccc([N+](=O)[O-])cc2[N+](=O)[O-])nc1-c1ccc(Cl)cc1 | 6.3 cm | 4.8 cm | 40% | 0% | 55.6% | 53.3% | 3.3 cm and 1.6 cm | 0% | 5.4 cm | 4.2 cm | 54.4% | 49 mm | 9 cm | 35.6% | 26.7% | 20% | 30% | 56.7% | 7.2 cm | 0% | inhibition at 100 µg/mL (Thanatephorus cucumeris [21]): 0%; Mycelial growth [22]: 6.6 cm; zone of inhibition at 100 µg/mL (Pseudomonas aeruginosa [23]): 0 mm; Mycelial growth (Fusarium oxysporum [24]): 4 cm; Mycelial growth (Curvularia lunata [25]): 5.8 cm; inhibition at 100 µg/mL (Enterococcus faecalis [26]): 0%; inhibition at 500 µg/mL (Curvularia lunata [27]): 46.7%; inhibition at 500 µg/mL (Staphylococcus aureus [28]): 36.7%; Mycelial growth [29]: 3.9 cm; inhibition at 500 µg/mL (Escherichia coli [30]): 52.2%; inhibition at 100 µg/mL (Staphylococcus aureus [31]): 17.8%
CCOC(=O)c1nn(-c2ccc([N+](=O)[O-])cc2[N+](=O)[O-])cc1C=O | 4.3 cm | 3.5 cm | 57.8% | 81.1% | 71.1% | 76.6% | 7.7 cm | 0% | 3.8 cm | 2.1 cm | 95.6% | 86 mm | 6.8 cm | 37.8% | 61.1% | 53.3% | 52.2% | 74.4% | 4.2 cm | 25.6% | zone of inhibition at 100 µg/mL (Staphylococcus aureus [7]): 88 mm; Inhibition Zone [32]: 7.5 cm and 8.8 cm; zone of inhibition at 100 µg/mL [32]: 73 mm; inhibition at 100 µg/mL (Thanatephorus cucumeris [21]): 24.4%; Mycelial growth [22]: 3.5 cm; Mycelial growth (Fusarium oxysporum [24]): 2.6 cm; Mycelial growth (Curvularia lunata [25]): 5.6 cm; inhibition at 100 µg/mL (Enterococcus faecalis [26]): 83.3%; inhibition at 500 µg/mL (Curvularia lunata [27]): 61.1%; inhibition at 500 µg/mL (Staphylococcus aureus [28]): 97.8%; Mycelial growth [29]: 2.3 cm; inhibition at 500 µg/mL (Escherichia coli [30]): 97.8%; inhibition at 100 µg/mL (Staphylococcus aureus [31]): 85.6%
